We go through 63 compounds from ChEMBL document CHEMBL1157539, “Thousands of chemical starting points for antimalarial lead identification” (Nature, 2010).

SMILES strings stand for the structures.

For the assay, the system named is Plasmodium falciparum. The experiment in a line: GSK_TCMDC: Inhibition of Plasmodium falciparum 3D7 in whole erythrocytes, using parasite LDH activity as an index of growth. It counts as functional, organism-based. The settings on record: Plasmodium falciparum, 3D7.
Compound `COCCN1CCC(N(Cc2ccc(-c3ccc(OC(F)(F)F)cc3)cc2)C(=O)Cn2c(CCc3cccc(F)c3F)cc(=O)c3ccccc32)CC1` showed an XC50 of 1210 nM. The same measure for `CC(=O)Nc1ccc(OCCCCN(Cc2ccccc2C(F)(F)F)c2ccc(C#N)c(C(F)(F)F)c2)c(Cl)c1`: 981 nM; for `CC(C)(C)c1ccc(CNC(=O)c2ccc(-c3nc4cc(C(C)(C)C)ccc4[nH]3)cc2)cc1`: 840 nM; for `Cc1c(CCC#N)c(NCc2ccccc2)n2c(nc3ccccc32)c1C#N`: 876 nM.

The compound `Cc1cc(N2CCCC2)nc(NC(=N)Nc2cccc(C(F)(F)F)c2)n1` yielded an XC50 of 315 nM. The same measure for `O=C1C[C@@H]([S+]([O-])Cc2nccs2)N1CCOCCCCCCc1ccc(Cl)cc1` (stereo partly drawn): 1020 nM; for `O=C(Nc1cccc(C(F)(F)F)c1)c1cccc(S(=O)(=O)NC2CCN(CC3CCCCC3)C2)c1` (stereo not drawn): 588 nM; for `Cc1[nH]c(C)c(-c2ccc(-c3ccc(F)cc3)nc2)c(=O)c1Br`: 248 nM.

With `Cc1cccc2nc(-c3ccc(-c4ccc(CNCc5ccc(S(C)(=O)=O)cc5)cc4)cc3)[nH]c12`, the XC50 is 752 nM. In the case of `O=C(Nc1ccc(O)c(-c2nc3ccccc3[nH]2)c1)c1ccc([N+](=O)[O-])cc1`, the XC50 came to 318 nM. Under `COc1ccccc1N1CCN(C(C(=O)NCc2ccc3c(c2)OCO3)c2ccc3c(c2)OCCCO3)CC1` (stereo not drawn) stands 1120 nM; under `O=C(NCCCCN1CCC(O)(c2ccc(Cl)cc2)CC1)c1ccc(Br)cc1`, 1250 nM. Under `CCCCCN(C(=O)Nc1cc(C(F)(F)F)cc(C(F)(F)F)c1)C(C)c1nc2ccccc2c(=O)n1CC` (stereo not drawn) stands 787 nM; under `CC(C(=O)N1CCCC1)N1CCN(C(c2ccccc2)c2ccccc2)CC1` (stereo not drawn), 1100 nM. For `COCCNCc1ccc(-c2cccc(CN(C(=O)NCCc3ccccc3)C3CCN(Cc4ccccc4)CC3)c2)cc1`, the XC50 amounted to 918 nM. Under `CNC(=O)C1Cc2c([nH]c3ccc(Cl)cc23)C2(CCN(CCc3ccccc3)CC2)N1` (stereo not drawn) stands 893 nM; under `CCC(=O)c1ccc(-c2ccc(=O)n(CC(=O)N(CCN(CC)CC)Cc3ccc(-c4ccc(C(F)(F)F)cc4)cc3)n2)cc1`, 715 nM; under `CCn1ncc(Cl)c1CN(C)S(=O)(=O)c1ccc2ccccc2c1`, 818 nM. Under `CS(=O)(=O)c1ccc(-c2cnc(N)c(-c3cccc(O)c3)c2)cc1` stands 695 nM; under `COc1cc(Nc2ccnc3ccc(C(C)(C)C)cc23)cc(OC)c1OC`, 610 nM. `O=C(NC1CC1)c1cnc(N2CCCC(c3ccccc3)C2)c(Cl)c1` (stereo not drawn) displayed an XC50 of 797 nM. In turn, `CCN(CCCN1CCCCC1)c1nc(C)cc(Nc2ccc(Cl)cc2)n1` had an XC50 of 837 nM. The same measure for `CC(C)CNCc1cccc(-c2cccc(CN(CCN(C)C)C(=O)Nc3ccccc3)c2)c1`: 795 nM; for `COc1ccc(Nc2nccc(NCCNC(=O)c3cc4ccccc4s3)n2)cc1`: 1020 nM. Under `Cc1[nH]c2ccccc2c1C1=CCN(CCN2CCCc3c(Br)cccc3C2=O)CC1` stands 659 nM; under `CCOc1ccc(CCCON2C(=N)N=C(N)NC2(C)C)cc1`, 3.2 nM.

The compound `Cc1nnsc1C(=O)Nc1cccc(-c2ccc(-c3nc4ccccc4[nH]3)cc2)c1` registered an XC50 of 870 nM. Under `CNC(=O)/C=C/c1cc(NC(=O)Nc2ccnc3c(Br)cccc23)ccc1OC` stands 864 nM; under `COc1ccc(COc2c(OC)cc(Cc3cnc(N)nc3N)cc2OC)cc1`, 912 nM; under `CC(C)C1=NC(=O)c2cc([N+](=O)[O-])ccc2CN1`, 149 nM.

With `N#Cc1ccc(CN2CCC(Oc3ccc(NC(=O)c4cccs4)cc3)C2)cc1` (stereo not drawn), the XC50 amounted to 953 nM. Turning to `O=C(NCCCCCN1CCC(c2c[nH]c3ccccc23)CC1)Nc1ccc(Br)cc1`, the XC50 came out at 925 nM.

Compound `Fc1c(CNCC2CCN(CC3CCCCC3)CC2)cccc1C(F)(F)F` had an XC50 of 900 nM. Under `COc1ccc(OC)c2c1CCN(C)C2Cc1cccc2ccccc12` (stereo not drawn) stands 1050 nM; under `COc1ccc(Br)cc1C1C2C(=O)N(c3ccc(Br)cc3)C(=O)C2C2(C(=O)O)CC(OCc3ccccc3)CN12` (stereo not drawn), 195 nM. Under `O=C(Nc1cccc(C(F)(F)F)c1)Nc1ccc(F)c([N+](=O)[O-])c1` stands 696 nM; under `O=C(Nc1ccccc1)c1nn(CCCN2CCC(N3CCCC3)CC2)cc1-c1ccc(Cl)c(Cl)c1`, 240 nM; under `CC(C)c1ncc(-c2ccncc2)c(C2CCC(CNC(=O)c3ccncc3)CC2)n1` (stereo not drawn), 1350 nM. Turning to `CCN(CC)CCCC(C)Nc1c(-c2ccc(Br)cc2)cnc2ccccc12` (stereo not drawn), the XC50 was 703 nM.

The compound `CCCCCCn1c(Sc2ccc(C#N)c([N+](=O)[O-])c2)nnc1-c1ccccc1` came in with an XC50 of 772 nM. Under `O=C(Cc1cccc(Cl)c1)Nc1cccc(-c2c[nH]c3nc(Nc4cccc(OCc5ccccc5)c4)ncc23)c1` stands 1040 nM; under `CCc1ccc(NC(=O)c2ccc(CN3CCCN(CCC(C)C)CC3)cc2)cc1`, 632 nM; under `O=C(NC1CCCCN(Cc2ccccc2O)C1)c1cccc(C(F)(F)F)c1` (stereo not drawn), 795 nM. In turn, `CN(CCCNC(=S)NC12CC3CC(CC(C3)C1)C2)CCCNc1ccnc2cc(Cl)ccc12` had an XC50 of 121 nM. In turn, `COc1cccc(NC(=O)c2cc(C(=O)Nc3cccc(OC)c3)cc([N+](=O)[O-])c2)c1` displayed an XC50 of 661 nM.

As for `CC[C@H]1CN2CC[C@H]1C[C@@H]2[C@@H](O)c1cc(Cl)nc2ccc(OC)cc12`, the XC50 came to 63.5 nM. Under `COc1cccc(CNC[C@@H](O)[C@H](Cc2ccccc2)NC(=O)c2cc3c4c(c2)c(C(C)C)cn4CCS(=O)(=O)N3C)c1` stands 154 nM; under `CCCCN(CCCC)CCOc1cc2c(cc1OC)CCN2C(=O)/C=C/c1ccccc1Cl`, 1180 nM.

For `COc1cccc(NC(=O)Nc2cc(C)nc3ccccc23)c1`, the XC50 was 723 nM. The compound `O=C(Cn1c(=O)cnc2ccccc21)Nc1cccc(C(=O)Nc2cccc(C(F)(F)F)c2)c1` gave an XC50 of 277 nM.

In turn, `CCc1nc(N)nc(N)c1-c1ccc(F)cc1` came in with an XC50 of 407 nM. Under `Nc1oc2c(CN3CCCCCC3)c(O)ccc2c(=O)c1-c1nc2ccccc2s1` stands 516 nM. The same measure for `COc1ccccc1CNc1ncc(-c2ccsc2)c(-c2nccs2)n1`: 333 nM; for `Cc1ccc(CN2CCCN(Cc3cccc(NC(=O)c4cc5ccccc5s4)c3)CC2)cc1`: 1190 nM. Under `CN(C)CCN(C)Cc1ccc(-c2ccc(NC(=O)c3cccc(C#N)c3)cc2)cc1` stands 1270 nM; under `CCN(CC)CCCN(CCCN(CC)CC)c1cc(C)nc(Nc2ccc(Br)cc2)n1`, 200 nM. Consider `Clc1ncnc2scc(-c3ccc(Br)cc3)c12`, for which the XC50 worked out at 886 nM. In the case of `COc1cccc2cc(C(=O)N[C@@H](CC(C)C)C(=O)Nc3cc(F)ccc3Br)oc12`, the XC50 is 965 nM.

Compound `CC(C)NCc1ccc(-c2cccc(-c3nc4cc(C(F)(F)F)ccc4[nH]3)c2)cc1` registered an XC50 of 262 nM.

`Cc1ccc(O)cc1Nc1ccnc2ccc(C(C)(C)C)cc12` displayed an XC50 of 1250 nM. The same measure for `COc1cccc2c1CCN(CCN1CCC(NC(=O)c3ccc(-c4cccc(Cl)c4Cl)cc3)CC1)C2`: 699 nM. In turn, `Cc1nc(SCC(=O)N2CCCC2=O)c2c(C)c(C)sc2n1` returned an XC50 of 170 nM.

`C[C@@H]([C@@H](CCCCc1ccccc1)C(=O)N[C@H](C(=O)Nc1cccnc1)C(C)(C)C)N(O)C=O` showed an XC50 of 929 nM.
